Results on one compound are retold here after ChEMBL document CHEMBL1201862, “PubChem BioAssay data set” (2004).

Among the test systems are NCI-H226; OVCAR-8; U-251; MCF7; A498; SK-MEL-5; HL-60; Hs-578T; A549; MDA-N; NCI-H23; OVCAR-5; SN12C; UACC-257; LOX IMVI; IGROV-1; MOLT-4; RXF 393; CCRF-CEM; SF-268.
Holding throughout (experiment): NCI-60 cell line screen, 48 h

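All cell lines were grown in 96-well plates and treated with compound for 48 hours. GI50 = concentration required for 50% inhibition of growth.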 Calls of active or inactive are those of the source. Rule as the data show it: active = GI50 up to about 1.1 µM and inactive = higher.

With `C=C1C(=O)[C@@]23CC[C@@H]4[C@@]5(C)CCC[C@@]4(OC5=O)[C@@]2(C)CC[C@@H]1C3`, the GI50 was 2080 nM (inactive) with NCI-H226; 2300 nM (inactive) in the assay with OVCAR-8; 1970 nM (inactive) with U-251; 893 nM (active) with MCF7; 3240 nM (inactive) in the assay with A498; 962 nM (active) in the assay on SK-MEL-5. Moreover, the GI50 is 484 nM (active) in the assay with HL-60; 1930 nM (inactive) with Hs-578T; 3280 nM (inactive) in the assay with A549; 1870 nM (inactive) with MDA-N; 1940 nM (inactive) in the assay on NCI-H23; 2120 nM (inactive) in the assay on OVCAR-5. Also, the GI50 in the assay on SN12C is 3300 nM (inactive); in the assay on UACC-257, 1490 nM (inactive); in the assay on LOX IMVI, 422 nM (active); in the assay on IGROV-1, 1720 nM (inactive); with MOLT-4 it was 1750 nM (inactive); in the assay with RXF 393 it was 1010 nM (active). Also, the GI50 is 303 nM (active) in the assay with CCRF-CEM and 1720 nM (inactive) with SF-268.
